pEC50: −log10 of the molar value.
Columns and labels:
mu opioid receptor (MOR) [1] = molecular target: T1, mu opioid receptor (MOR) (Homo sapiens, UniProt P35372); experiment: PathHunter β-arrestin recruitment assay, PAM mode with EC20 endomorphin-1; type: cell-based
How it was run: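 Enzyme fragment complementation read-out: β-gal ED fragment fused to receptor, EA fused to β-arrestin, recruitment restoring β-gal activity detected by chemiluminescence. EC50 and percent maximal response derived for each compound.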

mu opioid receptor (MOR) [2] = molecular target: T1, mu opioid receptor (MOR); experiment: Hit Hunter cAMP signaling assay (adenylyl cyclase inhibition), PAM mode with EC20 endomorphin-1; type: cell-based
[3] = maximal response for β-arrestin recruitment
[4] = β-arrestin recruitment, read-out: β-arr. EC50
[5] = adenylyl cyclase inhibition, read-out: cAMP EC50
[6] = maximal response for adenylyl cyclase inhibition
[7] = cAMP EC50, adenylyl cyclase inhibition
[8] = maximal response, β-arrestin recruitment
[9] = maximal response, adenylyl cyclase inhibition

T1 sequence (P35372 whole entry, the tested form may be a part): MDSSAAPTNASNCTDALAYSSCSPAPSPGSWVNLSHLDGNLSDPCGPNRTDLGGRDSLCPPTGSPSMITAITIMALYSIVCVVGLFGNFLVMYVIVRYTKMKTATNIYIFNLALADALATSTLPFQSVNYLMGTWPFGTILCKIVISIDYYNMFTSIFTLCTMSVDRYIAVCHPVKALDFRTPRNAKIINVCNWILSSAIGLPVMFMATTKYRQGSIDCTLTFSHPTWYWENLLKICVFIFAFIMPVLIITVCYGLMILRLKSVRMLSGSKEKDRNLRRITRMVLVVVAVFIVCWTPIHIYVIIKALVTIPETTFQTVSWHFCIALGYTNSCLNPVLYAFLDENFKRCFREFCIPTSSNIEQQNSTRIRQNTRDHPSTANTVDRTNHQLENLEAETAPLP

Row | Compound | β-arr Max. Resp. (mu opioid receptor (MOR) [1]; [3]) | pEC50 (mu opioid receptor (MOR) [1]; [4]) | pEC50 (mu opioid receptor (MOR) [2]; [5]) | cAMP Max. Resp. (mu opioid receptor (MOR) [2]; [6]) | pEC50 (mu opioid receptor (MOR) [2]; [7]) | other results
1 | CC1CCN(S(=O)(=O)c2ccc(Cl)cc2)C1c1ccc(F)c(C(F)(F)F)c1 (mixture of isomers) [compound 100] | F (F represents a maximal response of > 60%) | > 6.15 | < 5.68 | D (D represents a maximal response of < 40%) | – | β-arr. Max Resp. (mu opioid receptor (MOR) [1]; maximal response for β-arrestin recruitment, Table 3): 76; pEC50 (mu opioid receptor (MOR) [1]; β-arrestin recruitment, Table 3, read-out: β-arr. EC50): 6.28; pEC50 (mu opioid receptor (MOR) [2]; adenylyl cyclase inhibition, Table 3, read-out: cAMP EC50): < 4.60; cAMP Max Resp. (mu opioid receptor (MOR) [2]; maximal response for adenylyl cyclase inhibition, Table 3): 25
2 | COc1ccc(C2CCCCN2S(=O)(=O)c2ccc(Cl)cc2)cc1C (racemic) [compound 68] | F (F represents a maximal response of > 60%) | < 5.68 | 5.68 to 6.15 | E (E represents a maximal response of 40-60%) | – | –
3 | Cc1cnc(Cl)nc1N1CCCCC1c1cccc(C(F)(F)F)c1 (stereo not drawn) [compound 265] | F (F represents a maximal response of > 60%) | < 5.68 | – | E (E represents a maximal response of 40-60%) | < 5.68 | –
4 | O=S(=O)(c1ccc(Cl)cc1)N1CCCCC1c1ccc(C(F)(F)F)cn1 (racemic) [compound 65] | F (F represents a maximal response of > 60%) | < 5.68 | < 5.68 | E (E represents a maximal response of 40-60%) | – | –
5 | COc1ncc(N2CCCCC2c2cccc(C(F)(F)F)c2)c(F)n1 (stereo not drawn) [compound 295] | D (D represents a maximal response of < 40%) | < 5.68 | < 5.68 | D (D represents a maximal response of < 40%) | – | –
6 | O=S(=O)(c1ccc(Cl)cc1)N1CCCCC1c1ccc(F)c(F)c1 (racemic) [compound 75] | F (F represents a maximal response of > 60%) | 5.68 to 6.15 | > 6.15 | E (E represents a maximal response of 40-60%) | – | –
7 | [2H]C1(c2ccc(F)c(Br)c2)C(F)CCCN1S(=O)(=O)c1ccc(Cl)cc1F (stereo not drawn) [Compound 37] | F (F represents a maximal response of > 60%) | – | – | D (D represents a maximal response of < 40%) | – | –
8 | CN1CCN(c2nc(Cl)ncc2F)C(c2cc(F)cc(C(F)(F)F)c2)C1 (racemic) [Compound 305] | F (F represents a maximal response of > 60%) | 5.68 to 6.15 | 5.68 to 6.15 | F (F represents a maximal response of > 60%) | – | –
9 | O=S(=O)(c1ccc(Cl)cc1F)N1CCCCC1c1cccc(C(F)(F)F)c1 (stereo not drawn) [Compound 25] | F (F represents a maximal response of > 60%) | < 5.68 | < 5.68 | D (D represents a maximal response of < 40%) | – | –
10 | Fc1cccc(CN2CCCCC2c2cccc(C(F)(F)F)n2)c1 (stereo not drawn) [compound 152] | F (F represents a maximal response of > 60%) | < 5.68 | – | E (E represents a maximal response of 40-60%) | 5.68 to 6.15 | –
11 | COc1ccc(C2C(C)CCN2S(=O)(=O)c2ccc(Cl)cc2)cc1Br (mixture of isomers) [Compound 102] | F (F represents a maximal response of > 60%) | < 5.68 | 5.68 to 6.15 | E (E represents a maximal response of 40-60%) | – | –
12 | COc1ccc(C2CCCCN2S(=O)(=O)c2cccnc2Cl)cc1Br (stereo not drawn) [compound 17] | D (D represents a maximal response of < 40%) | < 5.68 | – | D (D represents a maximal response of < 40%) | < 5.68 | –
13 | Fc1cccc(C2CCCCN2c2ccnc(Cl)n2)n1 (stereo not drawn) [compound 259] | D (D represents a maximal response of < 40%) | < 5.68 | – | D (D represents a maximal response of < 40%) | < 5.68 | –
14 | Fc1ccc(Cl)cc1C1CCCCN1c1nc(Cl)ncc1F (stereo not drawn) [compound 400] | D (D represents a maximal response of < 40%) | > 6.15 | – | D (D represents a maximal response of < 40%) | > 6.15 | –
15 | COc1ccc(C2CCCCN2c2cccc(C(F)(F)F)n2)cc1Br (stereo not drawn) [compound 227] | F (F represents a maximal response of > 60%) | < 5.68 | – | F (F represents a maximal response of > 60%) | < 5.68 | –
16 | Fc1cc(Cl)cc(C2CCCCN2c2nc(Cl)ncc2F)c1 (single isomer, unassigned) [compound 420] | – | > 6.15 | – | – | – | β-arr Max. Resp. (mu opioid receptor (MOR) [1]; [8]): D (D represents a maximal response of < 40%); cAMP Max. Resp. (mu opioid receptor (MOR) [2]; [9]): D (D represents a maximal response of < 40%)
17 | COc1ccc(C2CCCCN2c2nc(Cl)c(C#N)cc2F)cc1Br (stereo not drawn) [compound 449] | – | < 5.68 | – | – | < 5.68 | β-arr Max. Resp. (mu opioid receptor (MOR) [1]; [8]): F (F represents a maximal response of > 60%); cAMP Max. Resp. (mu opioid receptor (MOR) [2]; [9]): D (D represents a maximal response of < 40%)
18 | Fc1cnc(Cl)nc1N1CCCCC1c1cccc(Cl)n1 (stereo not drawn) [compound 276] | E (E represents a maximal response of 40-60%) | – | – | D (D represents a maximal response of < 40%) | – | pEC50 (mu opioid receptor (MOR) [1]; β-arr. EC50, β-arrestin recruitment): < 5.68; pEC50 (mu opioid receptor (MOR) [2]): 5.68 to 6.15
19 | Fc1cnc(Cl)nc1N1CCCCC1c1cccc2ncnn12 (stereo not drawn) [compound 389] | D (D represents a maximal response of < 40%) | > 6.15 | – | D (D represents a maximal response of < 40%) | > 6.15 | –
20 | Fc1cnc(Cl)nc1N1CCCCC1c1cccc(C(F)F)c1 (stereo not drawn) [compound 298] | F (F represents a maximal response of > 60%) | < 5.68 | – | F (F represents a maximal response of > 60%) | > 6.15 | –
21 | OC1CCC(c2cc(F)cc(C(F)(F)F)c2)N(c2nc(Cl)ncc2F)C1 (stereo not drawn) [compound 311] | F (F represents a maximal response of > 60%) | < 5.68 | – | F (F represents a maximal response of > 60%) | 5.68 to 6.15 | –
22 | Fc1cnc(Cl)nc1N1CCCCC1c1ccnc2ccccc12 (stereo not drawn) [compound 283] | D (D represents a maximal response of < 40%) | < 5.68 | – | F (F represents a maximal response of > 60%) | < 5.68 | –
23 | COc1cc(C2CCCCN2c2nc(Cl)ncc2F)ccn1 (stereo not drawn) [compound 275] | D (D represents a maximal response of < 40%) | < 5.68 | – | D (D represents a maximal response of < 40%) | < 5.68 | –
24 | COc1ccc(C2COCCN2c2nc(Cl)ncc2F)cc1Br (racemic) [Compound 187] | F (F represents a maximal response of > 60%) | < 5.68 | < 5.68 | E (E represents a maximal response of 40-60%) | – | –
25 | O=S(=O)(c1ccc(Cl)cc1)N1CCCCC1c1ccc(F)c(Br)c1 (single isomer, unassigned) [compound 446] | – | < 5.68 | < 5.68 | – | – | β-arr Max. Resp. (mu opioid receptor (MOR) [1]; [8]): F (F represents a maximal response of > 60%); cAMP Max. Resp. (mu opioid receptor (MOR) [2]; [9]): E (E represents a maximal response of 40-60%)
26 | O=S(=O)(Cc1ccccc1)N1C2CCC(C2)C1c1ccc(F)c(Br)c1 (stereo not drawn) [Compound 182] | E (E represents a maximal response of 40-60%) | < 5.68 | < 5.68 | D (D represents a maximal response of < 40%) | – | –
27 | Fc1cccc(C2CCCCN2c2nccc(Cl)n2)n1 (stereo not drawn) [compound 260] | D (D represents a maximal response of < 40%) | < 5.68 | – | D (D represents a maximal response of < 40%) | < 5.68 | –
28 | FC(F)(F)c1ccc(N2CCCCC2c2cccc(C(F)(F)F)n2)cc1 (stereo not drawn) [compound 452] | – | < 5.68 | – | – | < 5.68 | β-arr Max. Resp. (mu opioid receptor (MOR) [1]; [8]): E (E represents a maximal response of 40-60%); cAMP Max. Resp. (mu opioid receptor (MOR) [2]; [9]): D (D represents a maximal response of < 40%)
29 | Fc1cnc(Cl)nc1N1CCSCC1c1cccc(C(F)(F)F)c1 (stereo not drawn) [Compound 456] | – | < 5.68 | < 5.68 | – | – | β-arr Max. Resp. (mu opioid receptor (MOR) [1]; [8]): F (F represents a maximal response of > 60%); cAMP Max. Resp. (mu opioid receptor (MOR) [2]; [9]): E (E represents a maximal response of 40-60%)

Source: US11071731B2, “Allosteric modulators of the mu opioid receptor” (Chiromics, LLC, priority 2017, dated 2021)
